According to US7700618B2 (Pfizer Inc, priority 2006, dated 2010):

Target: T1, Human CB2 (Homo sapiens, UniProt P34972)
T1 construct: expressed in transfected cells; host or cells: CHO-K1 (Chinese hamster ovary K1) cells
Assay: Agonist-induced cAMP change in human CB2 transfected CHO-K1 cells
Assay type: cell-based
Conditions: forskolin 5 μM stimulated cAMP; for EC50: 30 min 37° C.
Method: Agonist-induced cAMP Change in Human CB2 Transfected CHO-K1 Cells
Human CB2 transfected Chinese hamster ovary-K1 (CHO-K1) cells were established and grown to 60-80% confluence. The medium was changed to F-12 medium containing 10% dialysed FBS, and the cells were incubated overnight. On the day of the assay, the cells were harvested with PBS/1 mM EDTA, centrifuged and washed with PBS. Cell pellets were resuspended in the incubation buffer (F-12 medium, 20 mM HEPES, 1 mM IBMX, 0.1 mM Ro-20-1724) at the concentration of 1×10^5 cells/ml and pre-incubated for 15 min at room temperature. The agonist samples were diluted from 10 mM stock solution in DMSO and dispensed into 96-well half-area plates (12.5 μl/well) with assay buffer (F-12, 20 mM HEPES). The reaction was initiated by adding the cells (25 μl/well) into the well containing forskolin (12.5 μL/well, final 5 μM) and diluted compounds. After incubation for 30 minutes at 37° C., cAMP-XL665 conjugated, and then the anti-cAMP-cryptase conjugate was added to the lysate (25 μl/well each). After further incubation for 60 minutes at room temperature, measurements were made on the Wallac 1420 ARVOsx multilabel counter (Excitation 320 nm, Emission 665 nm/620 nm, delay time 50 μs, window time 400 μs). Data analysis was made based on the ratio of fluorescence intensity of each well at 620 nm and 665 nm. The equation “sigmoldal dose-response” was used for the determination of EC50 and Emax values.

T1 sequence (P34972 whole entry): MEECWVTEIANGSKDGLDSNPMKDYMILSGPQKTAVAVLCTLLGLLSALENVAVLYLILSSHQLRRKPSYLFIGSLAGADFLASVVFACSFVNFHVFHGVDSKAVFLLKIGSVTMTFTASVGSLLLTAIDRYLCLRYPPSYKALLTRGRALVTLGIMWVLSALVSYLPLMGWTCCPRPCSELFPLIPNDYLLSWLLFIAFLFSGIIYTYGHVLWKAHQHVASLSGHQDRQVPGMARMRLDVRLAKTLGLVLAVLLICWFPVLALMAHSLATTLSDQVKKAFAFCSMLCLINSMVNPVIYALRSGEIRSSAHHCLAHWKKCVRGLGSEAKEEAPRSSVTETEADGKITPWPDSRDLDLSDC

Compound | Emax | EC50
CC(C)(C)Cc1nc2cc(S(=O)(=O)C(C)(C)C(N)=O)ccc2n1CC1CC1 [Example 1, 2-{[1-(Cyclopropylmethyl)-2-(2,2-dimethylpropyl)-1H-benzimidazol-5-yl]sulfonyl}-2-methylpropanamide] | 118% | 0.91 nM
CC(C)(C)Cc1nc2cc(S(=O)(=O)C3(C(N)=O)CC3)ccc2n1CC1CC1 [Example 2, 1-{[1-(Cyclopropylmethyl)-2-(2,2-dimethylpropyl)-1H-benzimidazol-5-yl]sulfonyl}cyclopropanecarboxamide] | 160% | 0.15 nM
CC(C)(C)Cc1nc2cc(S(=O)(=O)C3(C(N)=O)CCC3)ccc2n1CC1CC1 [Example 3, 1-{[1-(Cyclopropylmethyl)-2-(2,2-dimethylpropyl)-1H-benzimidazol-5-yl]sulfonyl}cyclobutanecarboxamide] | 121% | 0.45 nM
CC(C)(C)Cc1nc2cc(S(=O)(=O)C3(C(N)=O)CCOCC3)ccc2n1CC1CC1 [Example 4, 4-{[1-(Cyclopropylmethyl)-2-(2,2-dimethylpropyl)-1H-benzimidazol-5-yl]sulfonyl}tetrahydro-2H-pyran-4-carboxamide] | 114% | 1.31 nM
CC(C)(C)Cc1nc2cc(S(=O)(=O)C(C)(C)C(N)=O)cnc2n1CC1CC1 [Example 5, 2-{[3-(Cyclopropylmethyl)-2-(2,2-dimethylpropyl)-3H-imidazo[4,5-b]pyridin-6-yl]sulfonyl}-2-methylpropanamide] | 118% | 5.53 nM
CC(C)(C)Cc1nc2cc(S(=O)(=O)C(C)(C)C(=O)N3CCOCC3)ccc2n1CC1CC1 [Example 6, 1-(Cyclopropylmethyl)-5-[(1,1-dimethyl-2-morpholin-4-yl-2-oxoethyl)sulfonyl]-2-(2,2-dimethylpropyl)-1H-benzimidazole] | 136% | 2.96 nM
CN(C)C(=O)C(C)(C)S(=O)(=O)c1ccc2c(c1)nc(CC(C)(C)C)n2CC1CC1 [Example 7, 2-{[1-(Cyclopropylmethyl)-2-(2,2-dimethylpropyl)-1H-benzimidazol-5-yl]sulfonyl}-N,N,2-trimethylpropanamide] | 141% | 1.34 nM
CNC(=O)C(C)(C)S(=O)(=O)c1ccc2c(c1)nc(CC(C)(C)C)n2CC1CC1 [Example 8, 2-{[1-(Cyclopropylmethyl)-2-(2,2-dimethylpropyl)-1H-benzimidazol-5-yl]sulfonyl}-N,2-dimethylpropanamide] | 129% | 6.68 nM
CC(C)(C)Cc1nc2cc(S(=O)(=O)C(C)(C)C(=O)NCCO)ccc2n1CC1CC1 [Example 9, 2-{[1-(Cyclopropylmethyl)-2-(2,2-dimethylpropyl)-1H-benzimidazol-5-yl]sulfonyl}-N-(2-hydroxyethyl)-2-methylpropanamide] | 127% | 1.13 nM
CC(C)(C)Cc1nc2cc(S(=O)(=O)C(C)(C)C(=O)NCC(N)=O)ccc2n1CC1CC1 [Example 10] | 109% | 3.64 nM
CC(C)(C)Cc1nc2cc(S(=O)(=O)C(C)(C)C(=O)NCCN)ccc2n1CC1CC1 [Example 11] | 117% | 13.7 nM
CC(C)(C)c1nc2cc(S(=O)(=O)C(C)(C)C(N)=O)ccc2n1CC1(O)CCCC1 [Example 12, 2-({2-tert-Butyl-1-[(1-hydroxycyclopentyl)methyl]-1H-benzimidazol-5-yl}sulfonyl)-2-methylpropanamide] | 133% | 5.34 nM
CC(=O)NCC(C)(C)S(=O)(=O)c1ccc2c(c1)nc(CC(C)(C)C)n2CC1CC1 [Example 13, N-(2-{[1-(Cyclopropylmethyl)-2-(2,2-dimethylpropyl)-1H-benzimidazol-5-yl]sulfonyl}-2-methylpropyl)acetamide] | 113% | 5.24 nM
CC(C)(C)Cc1nc2cc(S(=O)(=O)C(C)(C)CNS(C)(=O)=O)ccc2n1CC1CC1 [Example 14, N-(2-{[1-(Cyclopropylmethyl)-2-(2,2-dimethylpropyl)-1H-benzimidazol-5-yl]sulfonyl}-2-methylpropyl)methanesulfonamide] | 120% | 1.59 nM
CN(C)C(=O)NCC(C)(C)S(=O)(=O)c1ccc2c(c1)nc(CC(C)(C)C)n2CC1CC1 [Example 15, N′-(2-{[1-(Cyclopropylmethyl)-2-(2,2-dimethylpropyl)-1H-benzimidazol-5-yl]sulfonyl}-2-methylpropyl)-N,N-dimethylurea] | 113% | 8.31 nM
CNC(=O)NCC(C)(C)S(=O)(=O)c1ccc2c(c1)nc(CC(C)(C)C)n2CC1CC1 [Example 16, N-(2-{[1-(Cyclopropylmethyl)-2-(2,2-dimethylpropyl)-1H-benzimidazol-5-yl]sulfonyl}-2-methylpropyl)-N′-methylurea] | 109% | 1.22 nM
CC(C)(C)Cc1nc2cc(S(=O)(=O)C(C)(C)CNC(N)=O)ccc2n1CC1CC1 [Example 17, N-(2-{[1-(Cyclopropylmethyl)-2-(2,2-dimethylpropyl)-1H-benzimidazol-5-yl]sulfonyl}-2-methylpropyl)urea] | 120% | 1.98 nM
CC(C)(C)Cc1nc2cc(S(=O)(=O)CC(C)(C)NC(N)=O)ccc2n1CC1CC1 [Example 18, N-(2-{[1-(Cyclopropylmethyl)-2-(2,2-dimethylpropyl)-1H-benzimidazol-5-yl]sulfonyl}-1,1-dimethylethyl)urea] | 109% | 26.4 nM
CC(=O)NC(C)(C)CS(=O)(=O)c1ccc2c(c1)nc(CC(C)(C)C)n2CC1CC1 [Example 19, N-(2-{[1-(Cyclopropylmethyl)-2-(2,2-dimethylpropyl)-1H-benzimidazol-5-yl]sulfonyl}-1,1-dimethylethyl)acetamide] | 110% | 3.77 nM
